ChEMBL document CHEMBL1201862, “PubChem BioAssay data set” (2004)
Active and inactive are the calls of the source.

Assays:
cells = format: functional
[1] = Vero E6 cell cytotoxicity, dose response, cytotoxicity control for non-replicating M. tuberculosis project, secondary assay (AID 492998); format: functional, VeroE6; conditions: Vero C1008
[2] = NIH3T3 cell viability loss – ATP luminescence, mouse fibroblasts, counter-screen, dose response (AID 2010); format: functional, cell-based;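 further: cells exposed to compound for about 90 hours before reading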
[3] = THP-1 cell cytotoxicity, dose response, cytotoxicity control for non-replicating M. tuberculosis project (AID 489025); format: functional
[4] = Trypanosoma cruzi growth suppression in host cells – NIH3T3 host cells, beta-gal luminescence, confirmation (AID 2044); format: functional, cell-based;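 further: intracellular parasites grown in NIH/3T3 mouse fibroblasts as host cells; luminescent beta-galactosidase reporter signal from transgenic T. cruzi replicating inside host cells; inhibitors lower the luminescence signal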
[5] = HepG2 cell cytotoxicity, dose response, cytotoxicity control for non-replicating M. tuberculosis project (AID 489018); format: functional; conditions: Mycobacterium tuberculosis
[6] = biological target: Voltage-dependent T-type calcium channel subunit alpha-1H (Homo sapiens, UniProt O95180); format: functional;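 further: channel activity triggered by adding a high calcium stimulation buffer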
Sequence of Voltage-dependent T-type calcium channel subunit alpha-1H (O95180 whole entry): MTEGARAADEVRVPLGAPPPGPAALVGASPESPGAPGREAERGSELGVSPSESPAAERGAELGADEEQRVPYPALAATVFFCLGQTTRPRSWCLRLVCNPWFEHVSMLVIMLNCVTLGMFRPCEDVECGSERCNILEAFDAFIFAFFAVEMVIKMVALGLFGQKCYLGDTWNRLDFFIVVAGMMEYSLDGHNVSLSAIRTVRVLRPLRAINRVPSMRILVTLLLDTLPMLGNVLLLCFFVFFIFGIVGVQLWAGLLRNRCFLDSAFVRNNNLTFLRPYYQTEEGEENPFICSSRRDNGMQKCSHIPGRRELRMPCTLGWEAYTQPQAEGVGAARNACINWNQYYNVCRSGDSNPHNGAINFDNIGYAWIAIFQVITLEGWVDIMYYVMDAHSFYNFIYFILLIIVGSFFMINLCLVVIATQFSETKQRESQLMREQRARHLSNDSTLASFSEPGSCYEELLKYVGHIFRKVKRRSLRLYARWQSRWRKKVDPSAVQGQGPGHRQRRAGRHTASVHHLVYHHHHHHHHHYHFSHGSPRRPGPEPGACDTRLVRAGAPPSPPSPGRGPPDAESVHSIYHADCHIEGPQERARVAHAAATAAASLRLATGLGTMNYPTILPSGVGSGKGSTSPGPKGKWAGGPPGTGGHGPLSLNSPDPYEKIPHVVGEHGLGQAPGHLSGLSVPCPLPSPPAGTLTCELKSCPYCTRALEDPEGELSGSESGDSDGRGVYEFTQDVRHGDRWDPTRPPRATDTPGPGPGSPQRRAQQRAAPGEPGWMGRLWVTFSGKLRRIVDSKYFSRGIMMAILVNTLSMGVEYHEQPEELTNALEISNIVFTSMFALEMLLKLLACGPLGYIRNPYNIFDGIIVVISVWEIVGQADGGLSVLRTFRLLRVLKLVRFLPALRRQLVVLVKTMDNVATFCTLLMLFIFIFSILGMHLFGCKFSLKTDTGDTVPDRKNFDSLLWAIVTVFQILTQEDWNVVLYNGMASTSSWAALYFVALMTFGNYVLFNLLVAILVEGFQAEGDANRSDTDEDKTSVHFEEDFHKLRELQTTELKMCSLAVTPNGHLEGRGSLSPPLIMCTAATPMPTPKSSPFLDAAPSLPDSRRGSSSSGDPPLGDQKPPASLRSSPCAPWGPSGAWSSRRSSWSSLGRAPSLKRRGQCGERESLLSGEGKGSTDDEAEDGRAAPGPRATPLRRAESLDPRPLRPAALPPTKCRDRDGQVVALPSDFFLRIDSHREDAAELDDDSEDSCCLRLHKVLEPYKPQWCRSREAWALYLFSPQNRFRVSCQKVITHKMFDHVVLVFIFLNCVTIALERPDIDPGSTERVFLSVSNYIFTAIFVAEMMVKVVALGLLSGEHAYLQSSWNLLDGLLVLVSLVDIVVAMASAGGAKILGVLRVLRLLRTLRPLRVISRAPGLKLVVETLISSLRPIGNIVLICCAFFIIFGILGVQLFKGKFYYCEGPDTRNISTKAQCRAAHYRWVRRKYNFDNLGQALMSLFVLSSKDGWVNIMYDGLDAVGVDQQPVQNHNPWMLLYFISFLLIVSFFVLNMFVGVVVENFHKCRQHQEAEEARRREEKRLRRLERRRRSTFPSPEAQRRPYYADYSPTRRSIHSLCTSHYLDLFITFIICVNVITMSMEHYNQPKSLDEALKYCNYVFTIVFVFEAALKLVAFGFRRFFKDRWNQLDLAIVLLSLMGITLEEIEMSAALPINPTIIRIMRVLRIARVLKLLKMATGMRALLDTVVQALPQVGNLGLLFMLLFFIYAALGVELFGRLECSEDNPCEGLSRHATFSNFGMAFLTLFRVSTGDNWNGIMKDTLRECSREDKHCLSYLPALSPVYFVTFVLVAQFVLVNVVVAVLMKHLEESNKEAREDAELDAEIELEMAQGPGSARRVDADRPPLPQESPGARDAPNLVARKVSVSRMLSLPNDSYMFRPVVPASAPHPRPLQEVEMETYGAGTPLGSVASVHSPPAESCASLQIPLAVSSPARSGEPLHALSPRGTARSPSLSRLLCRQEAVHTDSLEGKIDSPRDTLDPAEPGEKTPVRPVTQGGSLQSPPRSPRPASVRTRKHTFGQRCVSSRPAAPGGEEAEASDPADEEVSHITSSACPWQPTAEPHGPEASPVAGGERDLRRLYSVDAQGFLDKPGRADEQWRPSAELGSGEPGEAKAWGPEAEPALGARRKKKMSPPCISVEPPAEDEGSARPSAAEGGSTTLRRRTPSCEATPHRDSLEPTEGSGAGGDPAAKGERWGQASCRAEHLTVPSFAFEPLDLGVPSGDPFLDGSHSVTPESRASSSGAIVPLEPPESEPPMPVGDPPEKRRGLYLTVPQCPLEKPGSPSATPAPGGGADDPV

BJ [7] = experiment: cells; format: functional, cell-based; conditions: Homo sapiens
[8] = viability of PTEN-deleted HCT116 cells – cell-based, HCT116 PTEN knockout, dose response (AID 1047); format: functional;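 further: HCT116 colon tumor cells with PTEN knocked out; cells exposed to compound for 60 hours before readout; potency for loss of cell viability measured by luminescence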
[9] = DRD fibroblast viability loss – cell-based, non-viral oncogenic, luminescence, dose response (AID 1934); format: functional; conditions: Homo sapiens
[10] = biological target: T1, Microphthalmia-associated transcription factor (Homo sapiens, UniProt O75030); experiment: reducers of TRPM1 reporter luminescence, concentration series – cell-based, SK-MEL-5, cherry-picked, set 3, MITF inhibitor project, dose response (AID 493073); format: functional;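 further: SK-MEL-5 melanoma cells with luciferase driven by the MITF target TRPM1 promoter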
T1 sequence (O75030 whole entry): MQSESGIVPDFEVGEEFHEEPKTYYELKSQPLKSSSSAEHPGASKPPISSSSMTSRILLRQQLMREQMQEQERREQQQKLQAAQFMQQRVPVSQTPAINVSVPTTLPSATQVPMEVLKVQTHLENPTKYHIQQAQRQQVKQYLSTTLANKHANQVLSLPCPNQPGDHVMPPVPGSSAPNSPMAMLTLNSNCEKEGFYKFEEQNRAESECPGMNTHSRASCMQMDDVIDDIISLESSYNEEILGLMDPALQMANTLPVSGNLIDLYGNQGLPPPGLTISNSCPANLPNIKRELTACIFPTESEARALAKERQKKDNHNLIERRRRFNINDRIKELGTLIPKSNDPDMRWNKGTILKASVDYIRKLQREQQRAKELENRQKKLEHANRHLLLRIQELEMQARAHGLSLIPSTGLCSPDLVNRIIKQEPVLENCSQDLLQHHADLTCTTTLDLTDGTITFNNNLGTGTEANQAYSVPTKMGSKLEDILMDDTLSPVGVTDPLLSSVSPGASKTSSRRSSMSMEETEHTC

[11] = non-specific 3'UTR reporter inhibition in Clone20-Shn3RL – cell-based, Renilla luciferase, cherry-picked, counter-screen for Shn3 inhibitor project, dose response (AID 624133); format: functional
[12] = HEK-293T cell viability reduction – luminescence, B-cell screen hits, cytotoxicity control for BCR NF-kB inhibitor project, dose response (AID 489021); format: functional, cell-based;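 further: HEK-293T cells carrying an NF-kB luciferase reporter; cells exposed to compound for about 14 hours before viability readout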
[13] = reduction of Shn3 3'UTR-driven luciferase in osteoblasts – cell-based, Clone20 osteoblasts, firefly luciferase, cherry-picked, dose response (AID 624132); format: functional;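 further: firefly luciferase luminescence from reporter carrying the Shn3 3'UTR in osteoblasts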
[14] = viability of HCT116 lacking mutant beta-catenin – cell-based, human colon tumor, dose response (AID 1045); format: functional;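 further: HCT116 colon tumor cells with beta catenin knocked out; cells exposed to compound for 60 hours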
BJ [15] = experiment: BJ-TERT fibroblast viability loss – cell-based, RAS-independent, luminescence, dose response (AID 1933); format: functional; conditions: Homo sapiens
BJ [16] = experiment: BJ-TERT-LT-ST fibroblast viability loss – cell-based, RAS-independent, luminescence, dose response (AID 1935); format: functional; conditions: Homo sapiens;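 further: BJ fibroblasts immortalized with TERT plus LT and ST oncogenes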
[17] = loss of viability in HepG2 cells – cell-based, CellTiter-Glo, cherry-picked, cytotoxicity control for Shn3 inhibitor project, dose response (AID 624134); format: functional
Protein skinhead-1 = biological target: T2, Protein skinhead-1 (Caenorhabditis elegans, UniProt P34707); format: functional
T2 sequence (P34707 whole entry): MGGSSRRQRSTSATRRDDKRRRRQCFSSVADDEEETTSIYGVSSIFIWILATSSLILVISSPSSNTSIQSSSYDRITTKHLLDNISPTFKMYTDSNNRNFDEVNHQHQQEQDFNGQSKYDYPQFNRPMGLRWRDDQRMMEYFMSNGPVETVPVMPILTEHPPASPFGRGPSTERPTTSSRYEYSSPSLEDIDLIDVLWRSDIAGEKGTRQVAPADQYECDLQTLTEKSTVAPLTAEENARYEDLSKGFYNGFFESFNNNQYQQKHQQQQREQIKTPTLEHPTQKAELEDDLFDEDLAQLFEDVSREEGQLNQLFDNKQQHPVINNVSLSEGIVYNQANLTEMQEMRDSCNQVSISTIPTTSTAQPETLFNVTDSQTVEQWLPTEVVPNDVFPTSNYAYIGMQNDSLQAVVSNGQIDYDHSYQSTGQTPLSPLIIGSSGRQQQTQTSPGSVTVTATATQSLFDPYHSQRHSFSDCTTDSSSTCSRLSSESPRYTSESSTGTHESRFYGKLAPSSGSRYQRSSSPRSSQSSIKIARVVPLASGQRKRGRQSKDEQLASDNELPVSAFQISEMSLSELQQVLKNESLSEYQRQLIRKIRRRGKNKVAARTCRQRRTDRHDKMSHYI

[18] = microbe, parasite or virus in culture; format: functional; conditions: Mycobacterium tuberculosis
Ion channel NompC = Ion channel NompC (Danio rerio, UniProt Q7T1G6); experiment: Dose response cell-based high-throughput screening assay for agonists of the transient receptor potential channel N1 (TRPN1). [Related pubchem assays (depositor defined):AID1424, AID1448]; format: functional
Sequence of Ion channel NompC (Q7T1G6 whole entry): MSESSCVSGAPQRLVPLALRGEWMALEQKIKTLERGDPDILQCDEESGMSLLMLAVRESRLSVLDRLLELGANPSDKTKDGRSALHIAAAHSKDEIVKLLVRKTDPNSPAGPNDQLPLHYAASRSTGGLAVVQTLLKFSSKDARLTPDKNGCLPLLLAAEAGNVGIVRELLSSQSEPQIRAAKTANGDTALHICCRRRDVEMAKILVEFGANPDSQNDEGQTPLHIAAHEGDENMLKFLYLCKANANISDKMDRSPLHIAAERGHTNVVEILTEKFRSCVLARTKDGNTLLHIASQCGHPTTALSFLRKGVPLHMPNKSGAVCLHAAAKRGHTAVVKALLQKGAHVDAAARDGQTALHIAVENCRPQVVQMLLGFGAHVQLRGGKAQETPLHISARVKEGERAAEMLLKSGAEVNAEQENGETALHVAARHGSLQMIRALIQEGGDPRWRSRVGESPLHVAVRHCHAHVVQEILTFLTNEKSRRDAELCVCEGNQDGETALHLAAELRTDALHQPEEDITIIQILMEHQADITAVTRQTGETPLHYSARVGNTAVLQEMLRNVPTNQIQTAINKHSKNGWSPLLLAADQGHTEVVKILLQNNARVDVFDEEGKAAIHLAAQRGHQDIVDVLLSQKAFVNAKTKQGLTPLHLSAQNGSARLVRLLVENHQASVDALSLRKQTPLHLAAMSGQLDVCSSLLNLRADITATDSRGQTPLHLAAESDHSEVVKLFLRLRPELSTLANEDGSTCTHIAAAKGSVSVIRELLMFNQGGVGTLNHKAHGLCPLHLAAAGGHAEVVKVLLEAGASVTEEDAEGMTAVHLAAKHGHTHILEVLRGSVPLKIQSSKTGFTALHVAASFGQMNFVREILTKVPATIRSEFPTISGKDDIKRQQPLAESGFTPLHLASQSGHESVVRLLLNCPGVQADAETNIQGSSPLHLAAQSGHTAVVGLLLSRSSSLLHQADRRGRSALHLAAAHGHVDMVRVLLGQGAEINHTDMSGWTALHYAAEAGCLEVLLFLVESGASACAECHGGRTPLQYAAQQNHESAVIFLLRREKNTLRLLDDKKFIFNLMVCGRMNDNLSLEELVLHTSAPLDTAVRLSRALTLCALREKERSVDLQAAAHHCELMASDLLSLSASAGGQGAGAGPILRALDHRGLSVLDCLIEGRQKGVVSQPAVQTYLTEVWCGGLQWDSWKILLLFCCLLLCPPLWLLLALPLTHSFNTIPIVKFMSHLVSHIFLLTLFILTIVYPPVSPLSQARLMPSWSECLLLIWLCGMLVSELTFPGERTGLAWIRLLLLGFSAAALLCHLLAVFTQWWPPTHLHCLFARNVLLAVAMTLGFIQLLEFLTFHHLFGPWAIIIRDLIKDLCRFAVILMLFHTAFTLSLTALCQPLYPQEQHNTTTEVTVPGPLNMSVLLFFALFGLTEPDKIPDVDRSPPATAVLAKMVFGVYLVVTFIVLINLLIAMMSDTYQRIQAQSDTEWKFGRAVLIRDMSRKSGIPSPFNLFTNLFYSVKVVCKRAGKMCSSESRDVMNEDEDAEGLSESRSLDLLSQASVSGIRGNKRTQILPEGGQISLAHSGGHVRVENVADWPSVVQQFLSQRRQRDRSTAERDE

Mucolipin-3 = biological target: T3, Mucolipin-3 (Homo sapiens, UniProt Q8TDD5); experiment: Fluorescence counterscreen assay for […] agonists: dose response cell-based high-throughput screening assay to identify agonists of the transient receptor potential channel ML3 (TRPML3). [Related pubchem assays: 1424, 1448 ]; format: functional
T3 sequence (Q8TDD5 whole entry): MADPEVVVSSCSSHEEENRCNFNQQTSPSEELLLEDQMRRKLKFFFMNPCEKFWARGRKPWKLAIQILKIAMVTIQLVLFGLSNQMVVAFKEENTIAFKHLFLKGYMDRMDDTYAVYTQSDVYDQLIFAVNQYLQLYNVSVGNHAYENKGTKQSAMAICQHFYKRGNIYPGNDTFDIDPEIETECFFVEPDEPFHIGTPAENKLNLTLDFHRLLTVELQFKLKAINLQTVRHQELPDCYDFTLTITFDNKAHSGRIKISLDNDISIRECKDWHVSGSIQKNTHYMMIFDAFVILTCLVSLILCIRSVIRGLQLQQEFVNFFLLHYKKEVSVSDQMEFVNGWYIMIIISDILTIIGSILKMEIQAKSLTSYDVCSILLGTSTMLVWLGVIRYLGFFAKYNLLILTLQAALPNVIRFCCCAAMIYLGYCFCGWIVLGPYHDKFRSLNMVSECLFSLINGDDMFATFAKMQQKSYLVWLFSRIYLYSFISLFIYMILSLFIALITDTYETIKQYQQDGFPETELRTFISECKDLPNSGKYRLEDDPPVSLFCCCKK

Question: Which results are given for `CCCCN(CC)S(=O)(=O)c1ccc(C(=O)Nc2nnc(-c3cccs3)o2)cc1`?
Answer: IC50 (cells): 4.66 µM (active); CC50 [1]: 4.23 µM (active); EC50 [2]: 5.48 µM (active); CC50 [3]: 3.18 µM (active); EC50 [4]: 1.22 µM (active); CC50 [5]: 9.5 µM (active); EC50 [6]: 2.67 µM (active)

Question: For `COc1ccc(C(C(=O)NC2CCCCC2)N(C(=O)CCl)c2ccc(OC)cc2)cc1` (stereo not drawn), which EC50 (BJ [7]) is on record?
Answer: The EC50 was 5.19 µM (active).

Question: What about the EC50 [8] of the same compound?
Answer: The EC50 was 0.959 µM (active).

Question: What about the EC50 [9] of the same compound?
Answer: Its EC50 is 1.26 µM (active).

Question: And the AC50 [10]?
Answer: Its AC50 is 9.27 µM (active).

Question: What about the AC50 [11] of the same compound?
Answer: Its AC50 is 14.8 µM (active).

Question: What about the IC50 [12] of the same compound?
Answer: The IC50 was > 80 µM (inactive).

Question: What about the AC50 [13] of the same compound?
Answer: Its AC50 is 5.56 µM (active).

Question: And the EC50 [14]?
Answer: Its EC50 is 0.721 µM (active).

Question: What about the EC50 (BJ [15]) of the same compound?
Answer: The EC50 was 1.15 µM (inconclusive).

Question: What about the EC50 (BJ [16]) of the same compound?
Answer: Its EC50 is 8.28 µM (inconclusive).

Question: And the AC50 [17]?
Answer: Its AC50 is > 70 µM (inactive).

Question: What does the source list for `CCCC(NCC(O)COc1ccc(-c2ccccc2)cc1)c1ccccc1` (stereo not drawn)?
Answer: IC50 (cells): 12 µM (active); CC50 [1]: 12.7 µM (active); EC50 [2]: 17.6 µM (active); CC50 [3]: 15.7 µM (active); IC50 (Protein skinhead-1): > 100 µM (inactive); CC50 [18]: 12.6 µM (active); EC50 [4]: 2.1 µM (active); CC50 [5]: > 20 µM (active)

Question: Which EC50 (Ion channel NompC) does the source give for `O=C(O)c1cc2c(cc1Br)OCCCO2` here?
Answer: Its EC50 is > 29.9 µM (inactive).

Question: And the EC50 (Mucolipin-3)?
Answer: The EC50 was > 29.9 µM (not active).
